The values below come from ChEMBL document CHEMBL5291721, “A preclinical secondary pharmacology resource illuminates target-adverse drug reaction associations of marketed drugs” (Nat Commun, 2023).

Test [1] deals with Beta-1 adrenergic receptor (Homo sapiens, UniProt P08588). Format: functional.
For another test, the target named is Cannabinoid receptor 1 (Homo sapiens, UniProt P21554).
The target in test [2] is Beta-2 adrenergic receptor (Homo sapiens, UniProt P07550).
For test [3], the target named is T1, Alpha-1A adrenergic receptor (Homo sapiens, UniProt P35348).
T1 sequence (P35348 whole entry): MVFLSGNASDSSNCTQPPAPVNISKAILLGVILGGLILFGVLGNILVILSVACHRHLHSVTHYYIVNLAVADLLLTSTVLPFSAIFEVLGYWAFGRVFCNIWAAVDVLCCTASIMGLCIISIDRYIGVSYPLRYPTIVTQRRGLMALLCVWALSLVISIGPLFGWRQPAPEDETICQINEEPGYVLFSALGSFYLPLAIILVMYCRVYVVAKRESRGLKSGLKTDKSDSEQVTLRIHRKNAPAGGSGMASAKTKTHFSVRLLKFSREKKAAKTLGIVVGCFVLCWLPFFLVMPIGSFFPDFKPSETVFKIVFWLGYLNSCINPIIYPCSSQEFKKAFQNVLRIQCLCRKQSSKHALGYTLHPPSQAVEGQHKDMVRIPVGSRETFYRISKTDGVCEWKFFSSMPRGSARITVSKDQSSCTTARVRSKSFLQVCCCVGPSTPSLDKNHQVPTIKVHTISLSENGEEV
It is filed as functional, cell-based.

Test [4] addresses T2, 5-hydroxytryptamine receptor 1A (Homo sapiens, UniProt P08908).
T2 sequence (P08908 whole entry): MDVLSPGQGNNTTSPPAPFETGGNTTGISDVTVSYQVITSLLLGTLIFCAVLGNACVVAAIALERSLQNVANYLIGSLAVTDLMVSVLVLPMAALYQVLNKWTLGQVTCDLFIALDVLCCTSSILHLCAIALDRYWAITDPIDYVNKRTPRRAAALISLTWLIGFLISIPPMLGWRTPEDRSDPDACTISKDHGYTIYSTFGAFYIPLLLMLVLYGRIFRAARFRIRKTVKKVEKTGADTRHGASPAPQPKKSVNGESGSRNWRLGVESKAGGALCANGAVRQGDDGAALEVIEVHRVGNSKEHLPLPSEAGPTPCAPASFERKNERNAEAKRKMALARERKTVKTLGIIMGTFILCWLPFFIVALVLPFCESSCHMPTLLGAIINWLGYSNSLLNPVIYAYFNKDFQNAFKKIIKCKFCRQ

In another test the target is T3, Progesterone receptor (Homo sapiens, UniProt P06401).
T3 sequence (P06401 whole entry): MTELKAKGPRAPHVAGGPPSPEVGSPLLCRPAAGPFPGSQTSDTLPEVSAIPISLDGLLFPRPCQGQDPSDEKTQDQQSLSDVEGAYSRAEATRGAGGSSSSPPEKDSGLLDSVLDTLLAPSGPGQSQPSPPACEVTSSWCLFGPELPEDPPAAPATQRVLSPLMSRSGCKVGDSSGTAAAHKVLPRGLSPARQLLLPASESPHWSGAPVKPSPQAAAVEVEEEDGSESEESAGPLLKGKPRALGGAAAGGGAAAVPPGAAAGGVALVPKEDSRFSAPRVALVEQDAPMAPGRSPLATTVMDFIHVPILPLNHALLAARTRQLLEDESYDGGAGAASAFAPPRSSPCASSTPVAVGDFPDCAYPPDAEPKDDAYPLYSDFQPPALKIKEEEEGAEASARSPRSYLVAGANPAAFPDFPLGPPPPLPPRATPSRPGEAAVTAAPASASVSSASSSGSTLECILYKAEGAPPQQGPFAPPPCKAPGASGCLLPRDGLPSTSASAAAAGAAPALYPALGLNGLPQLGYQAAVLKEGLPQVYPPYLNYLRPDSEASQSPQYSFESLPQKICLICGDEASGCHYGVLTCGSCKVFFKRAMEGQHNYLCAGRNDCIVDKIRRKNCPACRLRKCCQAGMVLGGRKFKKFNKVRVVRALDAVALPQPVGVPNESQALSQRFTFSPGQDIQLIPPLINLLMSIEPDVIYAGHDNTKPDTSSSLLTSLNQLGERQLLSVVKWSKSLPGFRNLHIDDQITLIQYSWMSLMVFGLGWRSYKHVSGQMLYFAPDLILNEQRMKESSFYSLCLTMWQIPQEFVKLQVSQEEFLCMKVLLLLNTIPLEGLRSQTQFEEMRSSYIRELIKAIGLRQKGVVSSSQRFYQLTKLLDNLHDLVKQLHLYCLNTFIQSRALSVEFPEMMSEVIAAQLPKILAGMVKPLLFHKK

The next test concerns the target D(1A) dopamine receptor (Homo sapiens, UniProt P21728).
The target of test [5] is T4, Alpha-2A adrenergic receptor (Homo sapiens, UniProt P08913).
T4 sequence (P08913 whole entry): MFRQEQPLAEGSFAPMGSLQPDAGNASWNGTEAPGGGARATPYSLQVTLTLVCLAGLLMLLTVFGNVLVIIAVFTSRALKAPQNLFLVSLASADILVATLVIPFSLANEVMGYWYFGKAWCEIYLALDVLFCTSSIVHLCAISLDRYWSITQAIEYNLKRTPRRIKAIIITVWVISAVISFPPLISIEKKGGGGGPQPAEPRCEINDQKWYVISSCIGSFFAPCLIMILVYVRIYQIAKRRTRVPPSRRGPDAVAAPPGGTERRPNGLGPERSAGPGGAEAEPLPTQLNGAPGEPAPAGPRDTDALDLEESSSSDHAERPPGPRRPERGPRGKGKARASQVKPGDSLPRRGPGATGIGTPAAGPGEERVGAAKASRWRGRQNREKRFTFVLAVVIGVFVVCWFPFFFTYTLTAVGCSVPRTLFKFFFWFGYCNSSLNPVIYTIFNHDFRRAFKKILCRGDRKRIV

Another test addresses T5, Adenosine receptor A3 (Homo sapiens, UniProt P0DMS8).
T5 sequence (P0DMS8 whole entry): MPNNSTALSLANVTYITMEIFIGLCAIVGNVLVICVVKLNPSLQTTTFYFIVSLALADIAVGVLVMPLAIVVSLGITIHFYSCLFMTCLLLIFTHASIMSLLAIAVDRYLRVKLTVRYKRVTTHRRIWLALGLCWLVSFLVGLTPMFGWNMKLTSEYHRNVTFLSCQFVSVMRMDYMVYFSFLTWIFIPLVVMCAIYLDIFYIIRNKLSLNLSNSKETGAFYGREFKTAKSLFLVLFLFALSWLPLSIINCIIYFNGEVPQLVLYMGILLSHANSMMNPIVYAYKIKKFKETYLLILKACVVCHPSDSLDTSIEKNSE
Note: assay procedure not described here.

Chain of Cannabinoid receptor 1 (P21554 whole entry): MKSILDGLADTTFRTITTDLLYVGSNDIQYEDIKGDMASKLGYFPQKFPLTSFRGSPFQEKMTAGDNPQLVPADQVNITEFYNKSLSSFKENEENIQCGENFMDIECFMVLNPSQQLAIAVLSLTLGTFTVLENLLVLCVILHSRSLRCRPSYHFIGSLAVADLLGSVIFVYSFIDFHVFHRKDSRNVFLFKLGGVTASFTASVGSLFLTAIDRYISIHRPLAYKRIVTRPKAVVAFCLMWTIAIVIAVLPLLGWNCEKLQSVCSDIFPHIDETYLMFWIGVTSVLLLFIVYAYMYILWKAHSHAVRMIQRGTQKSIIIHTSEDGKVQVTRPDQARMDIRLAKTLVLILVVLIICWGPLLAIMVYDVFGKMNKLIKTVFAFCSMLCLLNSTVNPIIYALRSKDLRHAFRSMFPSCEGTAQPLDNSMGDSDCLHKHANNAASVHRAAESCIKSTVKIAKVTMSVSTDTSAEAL
Chain of Beta-2 adrenergic receptor (P07550 whole entry): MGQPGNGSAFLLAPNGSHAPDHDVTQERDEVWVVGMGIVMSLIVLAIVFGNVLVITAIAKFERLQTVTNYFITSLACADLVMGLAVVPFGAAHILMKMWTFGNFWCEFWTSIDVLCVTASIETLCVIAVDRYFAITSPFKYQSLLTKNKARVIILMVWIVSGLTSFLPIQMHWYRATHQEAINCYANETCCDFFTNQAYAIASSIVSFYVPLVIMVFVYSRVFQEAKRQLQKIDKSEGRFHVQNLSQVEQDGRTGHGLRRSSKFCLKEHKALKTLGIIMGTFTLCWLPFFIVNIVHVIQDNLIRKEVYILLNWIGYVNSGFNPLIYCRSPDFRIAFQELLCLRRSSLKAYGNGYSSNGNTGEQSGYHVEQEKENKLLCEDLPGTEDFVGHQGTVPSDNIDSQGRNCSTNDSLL
Chain of Beta-1 adrenergic receptor (P08588 whole entry): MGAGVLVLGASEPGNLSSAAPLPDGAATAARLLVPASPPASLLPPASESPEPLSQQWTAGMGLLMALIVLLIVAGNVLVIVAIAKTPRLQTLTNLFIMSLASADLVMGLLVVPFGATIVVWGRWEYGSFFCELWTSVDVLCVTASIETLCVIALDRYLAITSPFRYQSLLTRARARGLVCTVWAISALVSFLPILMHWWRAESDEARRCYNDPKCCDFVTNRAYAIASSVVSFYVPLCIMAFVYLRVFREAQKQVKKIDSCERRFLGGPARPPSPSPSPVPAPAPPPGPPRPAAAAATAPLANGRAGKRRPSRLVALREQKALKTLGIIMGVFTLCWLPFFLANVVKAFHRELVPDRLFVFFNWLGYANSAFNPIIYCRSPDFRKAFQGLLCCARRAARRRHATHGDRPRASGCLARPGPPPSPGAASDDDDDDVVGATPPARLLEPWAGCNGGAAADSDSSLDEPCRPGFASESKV
Chain of D(1A) dopamine receptor (P21728 whole entry): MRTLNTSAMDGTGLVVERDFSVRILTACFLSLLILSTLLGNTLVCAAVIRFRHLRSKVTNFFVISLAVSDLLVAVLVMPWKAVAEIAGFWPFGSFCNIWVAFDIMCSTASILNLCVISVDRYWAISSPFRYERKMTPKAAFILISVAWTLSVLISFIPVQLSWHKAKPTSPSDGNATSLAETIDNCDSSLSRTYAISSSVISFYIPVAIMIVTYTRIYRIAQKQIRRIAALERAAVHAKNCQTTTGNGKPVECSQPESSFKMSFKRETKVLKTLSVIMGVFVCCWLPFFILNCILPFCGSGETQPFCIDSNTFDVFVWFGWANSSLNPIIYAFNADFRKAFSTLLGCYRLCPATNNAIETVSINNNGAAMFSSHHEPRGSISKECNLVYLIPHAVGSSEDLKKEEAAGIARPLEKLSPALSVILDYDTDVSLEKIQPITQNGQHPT

On to `CCC[C@H](NC(=O)[C@@H]1[C@H]2CCC[C@H]2CN1C(=O)[C@@H](NC(=O)[C@@H](NC(=O)c1cnccn1)C1CCCCC1)C(C)(C)C)C(=O)C(=O)NC1CC1`, for which the AC50 (in test [1]; at Cannabinoid receptor 1; in test [2]) was over 10 µM each time.

`CN1CCC(=C2c3ccccc3CCc3cccnc32)CC1` [AZATADINE]: the AC50 (in test [1]; at Cannabinoid receptor 1; in test [2]) was over 10 µM in each case.

As for `CCCCC(=O)O[C@]1(C(=O)CO)[C@@H](C)C[C@H]2[C@@H]3CCC4=CC(=O)C=C[C@]4(C)[C@@]3(F)[C@@H](O)C[C@@]21C` [BETAMETHASONE VALERATE], the AC50 (in test [1]; on Cannabinoid receptor 1; in [2]) was over 10 µM throughout.

In the case of `CNC1=Nc2ccc(Cl)cc2C(c2ccccc2)=[N+]([O-])C1` [CHLORDIAZEPOXIDE], the AC50 (in [1]; at Cannabinoid receptor 1; in [2]) was over 10 µM each time.

Regarding `CC(N)Cc1ccc(O)cc1` (stereo not given) [HYDROXYAMPHETAMINE], the half-maximal activity concentration (AC50) (in [3]; in [4]; on Progesterone receptor; on D(1A) dopamine receptor; in [5]; on Adenosine receptor A3) was over 30 µM in each case.

As for `Cc1cc(NC(=O)C2=C(O)c3ccccc3S(=O)(=O)N2C)no1` [ISOXICAM], the concentration at half-maximal activity (AC50) (in [3]; in [4]; on Progesterone receptor; at D(1A) dopamine receptor; in test [5]; at Adenosine receptor A3) was over 30 µM throughout.

Consider `COc1cc2c(cc1OC)CC(=O)N(CCCN(C)C[C@H]1Cc3cc(OC)c(OC)cc31)CC2` [IVABRADINE], for which the AC50 (usually the midpoint of the concentration-response curve, whichever way the signal moves) in test [3] is over 30 µM; in [4], 5.81 µM; on Progesterone receptor, over 30 µM; on D(1A) dopamine receptor, over 30 µM; in test [5], over 30 µM; on Adenosine receptor A3, over 30 µM.

As to `CC(C)(C)NC[C@H](O)COc1cccc2c1CCCC2=O` [LEVOBUNOLOL], the half-maximal activity concentration (AC50) is over 30 µM in test [3]; 0.886 µM in [4]; over 30 µM at Progesterone receptor; over 30 µM on D(1A) dopamine receptor; over 30 µM in [5]; over 30 µM on Adenosine receptor A3.

Consider `CC12CC3CC(C)(C1)CC(N)(C3)C2` [MEMANTINE], for which the AC50 (in test [1]; on Cannabinoid receptor 1; in test [2]) was over 10 µM in each case.

As for `Cc1c(N(C)CS(=O)(=O)O)c(=O)n(-c2ccccc2)n1C` [METAMIZOLE], the half-maximal activity concentration (AC50) (in [3]; in test [4]; at Progesterone receptor; at D(1A) dopamine receptor; in test [5]; at Adenosine receptor A3) was over 30 µM in each case.

Regarding `CN1C(=O)/C(=N\NC(N)=S)c2ccccc21` [METHISAZONE], the AC50 in test [3] is over 30 µM; in test [4], over 30 µM; on Progesterone receptor, over 30 µM; on D(1A) dopamine receptor, over 30 µM; in test [5], over 30 µM; on Adenosine receptor A3, 13.9 µM.

In the case of `COC(=O)c1ccc(O)cc1` [METHYLPARABEN], the half-maximal activity concentration (AC50) (in [3]; in [4]; at Progesterone receptor; on D(1A) dopamine receptor; in [5]; on Adenosine receptor A3) was over 30 µM throughout.

Take `CCCc1nc(C(C)(C)O)c(C(=O)O)n1Cc1ccc(-c2ccccc2-c2nnn[nH]2)cc1` [OLMESARTAN]: the AC50 (in test [3]; in test [4]; on Progesterone receptor; at D(1A) dopamine receptor; in test [5]; on Adenosine receptor A3) was over 30 µM in each case.

Turning to `NCC(CC(=O)O)c1ccccc1` (stereo not given) [PHENIBUT], the AC50 (in test [3]; in test [4]; at Progesterone receptor; on D(1A) dopamine receptor; in test [5]; at Adenosine receptor A3) was over 30 µM in each case.

Consider `Cc1ncc(COP(=O)(O)O)c(C=O)c1O` [PYRIDOXAL PHOSPHATE ANHYDROUS], for which the concentration at half-maximal activity (AC50) (in test [3]; in test [4]; at Progesterone receptor; at D(1A) dopamine receptor; in test [5]; on Adenosine receptor A3) was over 30 µM in each case.

For the compound `COc1ccc(CN(CCN(C)C)c2ccccn2)cc1` [PYRILAMINE], the half-maximal activity concentration (AC50) in test [3] is over 30 µM; in test [4] it was 26.4 µM; on Progesterone receptor it was over 30 µM; on D(1A) dopamine receptor it was 24.2 µM; in test [5], 7.07 µM; at Adenosine receptor A3, over 30 µM.

Turning to `c1ccc2c(c1)CCc1ccccc1N2C1CN2CCC1CC2` (stereo not given) [QUINUPRAMINE], the concentration at half-maximal activity (AC50) is over 30 µM in test [3]; 23.3 µM in [4]; over 30 µM on Progesterone receptor; 2.41 µM on D(1A) dopamine receptor; 13.2 µM in [5]; over 30 µM on Adenosine receptor A3.

Take `C[C@H](Cc1cc2c(c(C(N)=O)c1)N(CCCO)CC2)NCCOc1ccccc1OCC(F)(F)F` [SILODOSIN]: the half-maximal activity concentration (AC50) in test [3] was over 30 µM; in test [4], 0.003 µM; at Progesterone receptor, over 30 µM; at D(1A) dopamine receptor it was 10.8 µM; in [5] it was 1.28 µM; on Adenosine receptor A3, over 30 µM.

In the case of `CC1=CCC(C(C)(C)O)CC1O` (stereo not given) [SOBREROL], the half-maximal activity concentration (AC50) (in test [3]; in test [4]; on Progesterone receptor; on D(1A) dopamine receptor; in test [5]; at Adenosine receptor A3) was over 30 µM each time.

Regarding `CCOC(=O)N1CSC[C@H]1C(=O)O` [TELMESTEINE], the AC50 (in test [3]; in [4]; on Progesterone receptor; on D(1A) dopamine receptor; in test [5]; at Adenosine receptor A3) was over 30 µM each time.
